Measured values as given in US8614240B2, “Benzoxazole derivatives having inhibitory activity against interleukin-6, preparation method thereof, and pharmaceutical composition containing the same” (EWHA University-Industry Collaboration Foundation, priority 2010, dated 2013).
Read-outs that look alike come from different tables or passages of the source.

Key:
Respective cell lines = experiment: Cytotoxicity assay (MTT); assay type: cell-based; conditions: 48 hours
Procedure: In testing the compounds in cell lines, if cells are killed due to a toxicity of the compounds at the treatment concentration, a significant result cannot be obtained. Therefore, the toxicity assay was conducted by treatment with the compounds as follows. Respective cell lines were maintained on 96-well cell culture plate in the medium comprising 10% FBS with 1% Penicillin G/streptomycin, and then incubated under 37° C., 5% CO2 condition. All the experiments were repeated three times. The samples were properly diluted, and then cells were treated with the diluted samples at the concentrations of 1, 3, 10, 30, 100 μg/ml. After 48 hours, 10% (v/v) 5 mg/mL 3-(4,5-dimethylthiazol-2-yl)-2,5-diphenyltetrazolium bromide (MTT; Sigma) was added to the cell culture. After 3 hours of the incubation, the medium was aspirated and washed with PBS. After adding DMSO (100 μl), the mixture was gently agitated for 5 minutes. The absorbance was measured at 570 nm by means of VERSA max microplate reader (Molecular Devices Inc.), and the average absorbance (±SE) values as obtained from three experiments were compared with t-test, a statistical significance of P<0.05. When Compounds 1 and 3 were used at the concentrations of 1, 3, 10, 30, 100 μg/ml, the survival rates of cells were 94, 76, 70, 67, 30%, respectively, by the treatment with Compound 1, and 74, 71, 65, 57, 19%, respectively, by the treatment with Compound 3. It means that at least 50% of cells survive at the concentration (for example, 30 μg/ml) of the compounds of the present invention for measuring IL-6 inhibitory activity.

[1] = tested on: IL-6 reactive STAT3 reporter gene; experiment: IL-6 reactive STAT3 reporter gene test (pSTAT3-TA-Luc6 luciferase) in HepG2 cells; assay type: cell-based; conditions: Homo sapiens
Procedure: A pSTAT3-TA-Luc6 construct, which comprises 8 more STAT3 DNA binding sequence copies as compared to pSTAT-3-TA-Luc and thus, enables to better reflect STAT3 reporter gene assay, was prepared. STAT3 DNA binding sequence was amplified using pSTAT3-TA-Luc plasmid (Clontech, Palo Alto, Calif.) as the template, and oligonucleotide ([…]. SEQ ID NO: 1 (containing Kpn I site)) and oligonucleotide ([…] GAAGCAACGTTC (containing Xho I site)) as forward primer and reverse primer, respectively, by means of a thermocycler. The amplified PCR product was cloned, separated, and then inserted into Kpn I/Xho I site of pSTAT3-TA-Luc plasmid.
Human hepatoma cell line, HepG2 cell, was incubated in MEM (Minimal Essential Medium, WelGENE Inc, Daegu, Korea) medium under water-saturated condition at 37° C., 5% CO2. To this medium was added 10% (v/v) fetal bovine serum, streptomycin (100 U/mL) and penicillin (100 U/mL). 6-Well cell culture plate was allowed to grow cells up to 80%, and then the specimen was pre-treated for one hour. Then, the medium was changed into 50 μL of serum-free medium, and the mixed solution of 0.1 μL pSTAT3-TA-Luc6 construct and 0.3 μL lipofectamin reagent was added to each well and then allowed to react for 3 hours to transfect cells with pSTAT3-TA-Luc6 construct. The medium was changed to a fresh medium, and the plate was incubated for 24 hours to transiently transfect cells. The transfected cells were serum-starved with 1% BSA/DMEM, and treated with the samples for one hour and then, after adding IL-6, incubated for 3 hours. The mixture was washed with PBS, shaken for one minute with addition of 50 μL of lysis buffer (promega luciferase assay system). After adding 30-100 μL of luciferase substrate (Promega luciferase assay system), the mixture was measured by a luminometer within 5 minutes.
Among others Compounds 1 and 3 as the materials having high inhibitory effect on IL-6 activity were used at various concentration to measure the degree of inhibitory effect, and the results thereof are as shown in FIGS. 2 and 3.

[2] = tested on: IL-6 induced STAT3 phosphorylation; experiment: Test for inhibitory activity against STAT3 phosphorylation induced by IL-6 (Western blot, HepG2); assay type: cell-based, human; conditions: HepG2, 1, 3, 10, 30, 100 ug/ml, 10 ng/ml IL-6 (FIG. 4)
Procedure: HepG2 cells were divisionally inoculated in 6-well plate in the ratio of 5×10^4 cells/well, and grown to be 80% confluent. After changing to a serum-free medium and incubating for 6 hours, cells were pre-treated with the samples for one hour. […] Then the mixture was centrifuged (13,000×g, 15 minutes) to obtain a lysate as the supernatant. Herein, HepG2 cells not treated with IL-6 and the samples were used as the control group. The concentration of proteins was quantified by means of Bio-Rad DC protein assay kit, and the protein was loaded on 10% SDS-polyacrylamide gel (SDS-PAGE) and electrophoresed at 30 mA for 2 hours. After completion of the electrophoresis, the protein on gel was transcribed into PVDF membrane (Westran® S, pore size […]) at 90V for 90 minutes, and the transcribed membrane was blocked with Tris-buffered solution (T-TBS; 50 mM Tri-HCl, pH 7.6, 150 mM NaCl, 0.2% Tween-20, 5% skim milk) at 4° C. for 12 hours, and washed five time with T-TBS. The membrane was treated with polyclonal antibodies of phospho-STAT3 (1:1000 dilutions, respectively) as the primary antibody for 2 hours. After washing five times with T-TBS, the membrane was reacted with HRP-conjugated anti-rabbit antibody (1:5000 dilutions) as the secondary antibody for one hour. After washing with T-TBS, the film was developed in the dark room by means of ECL.

[3] = tested on: IL-6 induced ERK phosphorylation; experiment: Test for inhibitory activity against ERK phosphorylation induced by IL-6 (Western blot, HepG2); assay type: cell-based, human; conditions: HepG2, 30 μg/ml (FIG. 5)
Procedure: HepG2 cell was divisionally inoculated in 6-well plate, and then starved for 18 hours.
The starved cells were treated with the samples for one hour, and then stimulated with IL-6 or LIF (Upstate Biotechnology, USA) for 10 minutes. The specimen was treated with 5× cell lysis buffer (Promega) sometimes with vortexing under ice for 30 minutes. The cell lysate obtained as described under B in Experiment 1 (3) was dissolved in 8% SDS-PAGE gel, and transferred to the nitrocellulose membrane. This membrane was blocked with Tris-buffered solution (50 mM Tris-HCl (pH 7.4), 150 mM NaCl, 0.1% Tween 20) containing 5% non-fat dry milk at 4° C. Then, it was incubated together with an appropriate primary antibody (ERK) present in Tris-buffered solution (50 mM Tris-HCl (pH 7.4), 150 mM NaCl, 0.1% Tween 20) containing 5% non-fat dry milk, at room temperature for 1-2 hours. This membrane was washed five times with TBS buffer solution for 10 minutes, and incubated with 1:6000 diluted horseradish peroxidase-conjugated secondary antibodies for one hour. The membrane was washed 10 times with TBS buffer solution, and then mixed and incubated with the 1:1 mixture of HRP Substrate Luminol Reagent and HRP Substrate Peroxide Solution as ELC reagent (Millipore Corp. Ma USA). The chemiluminescent signals were visualized with X-ray film.

[4] = HepG2, 20 ug/ml of sample, HepG2 cells, read-out: Inhibition % of IL-6 reactive STAT3 reporter gene activity

Row | SMILES | inhibition at 20 µg/mL [1, 4] | melting point | also measured
1 | CCc1ccc(Nc2nc3cc(N)ccc3o2)cc1 [Compound 1, N^2-(4-ethylphenyl)benzo[d]oxazole-2,5-diamine] | 97% | – | Survival rate of cells (Respective cell lines; 1 μg/ml): 94%; Survival rate of cells (Respective cell lines; 3 μg/ml): 76%; Survival rate of cells (Respective cell lines; 10 μg/ml): 70%; Survival rate of cells (Respective cell lines; 30 μg/ml): 67%; Survival rate of cells (Respective cell lines; 100 μg/ml): 30%; IC50 ([1]; HepG2 cells, various concentrations (FIGS. 2 and 3), read-out: IC50 of IL-6 inhibitory activity (STAT3 reporter gene)): 18.9 µM; Inhibitory activity on IL-6 induced STAT3 phosphorylation [2]: inhibited IL-6 expression in a concentration-dependent manner; Influence on IL-6 induced ERK phosphorylation [3]: did not influence on ERK phosphorylation
2 | CCc1ccc(Nc2nc3cc(NC(=O)Cc4ccccc4)ccc3o2)cc1 [Compound 2, N-(2-(4-ethylphenylamino)benzo[d]oxazol-5-yl)-2-phenylacetamide] | 61.7% | > 250 °C | –
3 | CCc1ccc(Nc2nc3cc(NC(=O)c4ccc(Cl)cc4)ccc3o2)cc1 [Compound 4, 4-chloro-N-(2-(4-ethylphenylamino)benzo[d]oxazol-5-yl)benzamide] | 12.1% | > 250 °C | –
4 | CCc1ccc(Nc2nc3cc(NC(=O)c4ccc([N+](=O)[O-])cc4Cl)ccc3o2)cc1 [Compound 5, 2-chloro-N-(2-(4-ethylphenylamino)benzo[d]oxazol-5-yl)-4-nitrobenzamide] | 20% | > 250 °C | –
5 | CCc1ccc(Nc2nc3cc(NC(=O)c4cc([N+](=O)[O-])ccc4Cl)ccc3o2)cc1 [Compound 6, 2-chloro-N-(2-(4-ethylphenylamino)benzo[d]oxazol-5-yl)-5-nitrobenzamide] | 65.6% | – | –
6 | CCc1ccc(Nc2nc3cc(NC(=O)c4ccc(Cl)c(Cl)c4)ccc3o2)cc1 [Compound 7, 3,4-dichloro-N-(2-(4-ethylphenylamino)-benzo[d]oxazol-5-yl)benzamide] | 69.3% | – | –
7 | CCc1ccc(Nc2nc3cc(NC(=O)c4cccc(CCl)c4)ccc3o2)cc1 [Compound 8, 3-(chloromethyl)-N-(2-(4-ethylphenyl-amino)benzo[d]oxazol-5-yl)benzamide] | > 80% | – | –
8 | CCc1ccc(Nc2nc3cc(NC(=O)c4ccc(CC)cc4)ccc3o2)cc1 [Compound 9, 4-ethyl-N-(2-(4-ethylphenylamino)benzo[d]oxazol-5-yl)benzamide] | 63.3% | > 250 °C | –
9 | CCc1ccc(Nc2nc3cc(NC(=O)c4cc(F)cc(C(F)(F)F)c4)ccc3o2)cc1 [Compound 10, N-(2-(4-ethylphenylamino)benzo[d]oxazol-5-yl)-3-fluoro-5-(trifluoromethyl)benzamide] | 50.2% | > 250 °C | –
10 | CCOc1ccccc1C(=O)Nc1ccc2oc(Nc3ccc(CC)cc3)nc2c1 [Compound 11, 2-ethoxy-N-(2-(4-ethylphenylamino)-benzo[d]oxazol-5-yl)benzamide] | 58% | 181.6 to 182 °C | –
11 | CCc1ccc(Nc2nc3cc(NC(=O)c4ccc(C(C)(C)C)cc4)ccc3o2)cc1 [Compound 12, 4-tert-butyl-N-(2-(4-ethylphenylamino)-benzo[d]oxazol-5-yl)benzamide] | > 80% | – | –
12 | CCc1ccc(Nc2nc3cc(NC(=O)c4ccc(OC)c(OC)c4)ccc3o2)cc1 [Compound 13, N-(2-(4-ethylphenylamino)benzo[d]oxazol-5-yl)-3,4-dimethoxybenzamide] | 26.2% | > 250 °C | –
13 | CCc1ccc(Nc2nc3cc(NC(=O)c4cc(OC)c(OC)c(OC)c4)ccc3o2)cc1 [Compound 14, N-(2-(4-ethylphenylamino)benzo[d]oxazol-5-yl)-3,4,5-trimethoxybenzamide] | – | > 250 °C | inhibition at 20 µg/mL ([1]; HepG2, read-out: Inhibition % of IL-6 reactive STAT3 reporter gene activity, 20 ug/ml of sample, HepG2 cells): > 80%
14 | CCCCCCCc1ccc(C(=O)Nc2ccc3oc(Nc4ccc(CC)cc4)nc3c2)cc1 [Compound 15, N-(2-(4-ethylphenylamino)benzo[d]oxazol-5-yl)-4-heptylbenzamide] | 57.2% | 244.8 to 246 °C | –
15 | CCc1ccc(Nc2nc3cc(NC(=O)c4ccccc4Nc4cccc(C(F)(F)F)c4)ccc3o2)cc1 [Compound 16, N-(2-(4-ethylphenylamino)benzo[d]oxazol-5-yl)-2-(3-(trifluoromethyl)phenylamino)benzamide] | > 80% | 174 to 176 °C | –
